Literature values as cited in patent US20240299291A1, “OPHTHALMIC PREPARATION ADMINISTERED BY EYE DROPS AND USED FOR PREVENTING AND TREATING DRY MACULAR DEGENERATION AND RETINAL LIGHT DAMAGE” (CHENGDU RUIMU BIOPHARMACEUTICALS CO., LTD., priority 2021, published 2024).

Key:
[1] = tested on: age-related macular degeneration (AMD); settings: oral metformin
[2] = tested on: AMD; open-angle glaucoma
[3] = tested on: retinal light damage; settings: injection into the vitreous cavity of mice, up to 500 mg/kg/day, 7 days, before light damage
[4] = tested on: AMPK (adenosine mono-phosphate activated protein kinase); settings: mice

AMPK activation in the retina of eyes [4]: locally activates AMPK
Compound: CN(C)C(=N)N=C(N)N [metformin]
Risk of AMD in patients with type 2 diabetes versus patients who did not take metformin [1]: significantly lower
Reduction of the incidence of open-angle glaucoma versus patients who did not take metformin ([2]; high-dose group (>1110 g metformin for 2 years)): 25%
Effect on the occurrence or development of AMD ([2]; oral metformin): may have therapeutic effect on the occurrence or development of AMD
Prevention of light damage [3]: almost completely prevent the light damage
